Measurements published in patent US20240254489A1, “COMPOSITIONS AND METHODS OF TARGETING THE PAX6 SIGNALING PATHWAY TO REDUCE FORMATION OF AMYLOID BETA PLAQUES AND NEUROFIBRILLARY TANGLES” (The University of Hong Kong, priority 2021, published 2024).

Assays:
[1] = system: C/EBPa; conditions: cited from earlier work
[2] = system: Pax6 promoter; experiment: Pax6 promoter luciferase reporter assay in amyloid β-treated cortical neurons; assay type: cell-based, mouse; conditions: co-treatment with amyloid β
Procedure: Cortical neurons were transfected with luciferase reporter constructs three days after plating. After amyloid β treatment, luciferase activity of a target gene was determined using the dual-luciferase reporter assay system (Promega) in a microplate luminometer. Luciferase activity was normalised against Renilla activity for the transfection efficiency using a pRL Renilla luciferase control reporter construct. Next, experiments were designed to investigate whether the upregulation of Pax6 and c-Myb is associated with an increase in transcriptional activation of their targets. Cortical neurons were transfected with a P6CON luciferase reporter construct, which contained three standard Pax6 binding sites^39 to measure Pax6 binding; a luciferase construct containing the Pax6 P1 promoter^40 to measure Pax6 promoter activation; or with a luciferase construct containing c-Myb binding sites to measure c-Myb binding. The same luciferase assays were then performed after amyloid β treatment.

[3] = system: Pax6 and c-Myb; experiment: RT-PCR and Western blot of amyloid β-induced Pax6 and c-Myb in cortical neurons; assay type: cell-based, mouse
Procedure: Human brain tissues or mouse cortical neurons were dissolved in ice-cold 1×RIPA buffer (Cell Signaling) with proteinase inhibitor cocktail (Sigma). Proteins were separated on NuPAGE Novex 4-12% Bis-Tris gels (Thermo Fisher Scientific) and transferred to nitrocellulose membranes. Membranes were probed with indicated primary antibodies. The blots were analysed and quantified by densitometry using ImageJ software (Version 1.52t, National Institutes of Health).
Total mRNA was prepared from cell cultures utilizing TRIzol reagent (Thermo Fisher Scientific). Semi-quantitative RT-PCR experiments were performed to examine RNA expression of target genes. Briefly, 2 μg of total RNA was reverse-transcribed using SuperScript First-Strand Synthesis System (Thermo Fisher Scientific). The first-strand cDNA was used as a template. β-actin was used as the normalisation control.
Primary cortical neurons were derived from embryonic day 14.5 (E14.5) C57BL/6 mice^31. The brains were dissociated from skulls, meninges removed and cortices isolated. Individual cells were dissociated by incubation with trypsin and DNase (Sigma). Cells were plated on poly-d-lysine (Sigma)-coated 24-well plates at a density of 1.5×10^6 cells/ml in Neurobasal medium (Thermo Fisher Scientific) supplemented with B-27 (Thermo Fisher Scientific), N-2 (Thermo Fisher Scientific), and glutamine (0.5 mM, Thermo Fisher Scientific). […]

[4] = system: cortical neurons; experiment: Neuronal survival assay of amyloid β neurotoxicity; assay type: cell-based, mouse; conditions: co-treatment with amyloid β
Procedure: The survival assay of amyloid β neurotoxicity was performed as reported previously^33. At various time periods, neurons were lysed in a cell lysis buffer. Under light microscopy, the numbers of intact nuclei indicating living cells was quantified and expressed relative to the number of cells in the control group without amyloid β treatment.
The brains were dissociated from skulls, meninges removed and cortices isolated. Individual cells were dissociated by incubation with trypsin and DNase (Sigma). Cells were plated on poly-d-lysine (Sigma)-coated 24-well plates at a density of 1.5×10^6 cells/ml in Neurobasal medium (Thermo Fisher Scientific) supplemented with B-27 (Thermo Fisher Scientific), N-2 (Thermo Fisher Scientific), and glutamine (0.5 mM, Thermo Fisher Scientific). Three days after seeding, cultured cells were transfected with siRNAs (60 pmol/24-well) using Lipofactamine 2000 transfection reagent (Thermo Fisher Scientific). Twenty-four hours after transfection, cells were exposed to amyloid β1-42 (5 μM) for the indicated time periods and then processed for subsequent assays. SiRNAs from Santa Cruz are provided as pools consisting of three to five target-specific 19-25 nucleotides siRNAs designed to specifically knockdown the expression of mouse Pax6, c-Myb or E2F1. Silencer Select Pre-designed siRNAs were from Ambion, non-targeting siRNA was used as a negative control. […]

[5] = system: cdks 1, 2, 4 and 7; conditions: in vitro; cited from earlier work
[6] = system: 293T-APP cell line; experiment: Western blot of CDK4 and Cyclin D1 in 293T-APP cell line; assay type: cell-based; conditions: 10 nM and 50 nM
Excerpt: (§1) Experiments were designed to test the effect of palbociclib on Tau in vitro and in vivo.

[7] = system: 5×FAD mice; experiment: Immunofluorescence, Western blot and Aβ deposits in brain of palbociclib-treated 5×FAD mice; assay type: in vivo, mouse
Excerpt: (§2) FIG. 9A-9D show effects of palbociclib on 5×FAD mice model. FIGS. 9A and 9B is a series of immunofluorescent images showing expression of cell cycle marker (Cyclin D1) (9A) and Pax6 (9B). […] FIG. 9D is an image of an autoradiogram of a Western blot and the associated quantitative bar graph showing the relative expression of E2F-1, CDK6, c-Myb, APP, Iba1 and LC3B in palbociclib treatment group compared to controls. FIG. 9E is a series of images of brain tissue showing the relative Aβ deposits in palbociclib treated mouse brain tissue compared to controls. FIG. 9F is a series of images of liver, gallbladder and kidney in palbociclib treated mouse. FIGS. 9G-9J show the effect of palbociclib treatment on learning and memory ability of 5×FAD female mice in morris water maze. FIG. 9G is a schematic diagram of palbociclib administration with 60 mg/(kg*d); 10-month-old wild-type mice (WT) and 5×FAD mice were administrated with solvent (ctrl) and 60 mg/kg/day palbociclib (palb) for 2 months via oral garage; Morris water maze with n(WT-ctrl)=5, n(5×FAD-ctrl)=5, n(5×FAD-palb)=3 were performed.
FIGS. 8A-8E show the effects of palbociclib on 5×FAD mice models.
FIGS. 9A-9D show effects of palbociclib on 5×FAD mice model. FIGS. 9A and 9B is a series of immunofluorescent images showing expression of cell cycle marker (Cyclin D1) (9A) and Pax6 (9B). […] FIG. 9D is an image of an autoradiogram of a Western blot and the associated quantitative bar graph showing the relative expression of E2F-1, CDK6, c-Myb, APP, Iba1 and LC3B in palbociclib treatment group compared to controls. FIG. 9E is a series of images of brain tissue showing the relative […] deposits in palbociclib treated mouse brain tissue compared to controls.

[8] = system: 5×FAD mice; experiment: Morris water maze of palbociclib-treated 5×FAD mice; assay type: in vivo, mouse
Excerpt: as §2
FIGS. 9G-9J show the effect of palbociclib treatment on learning and memory ability of 5×FAD female mice in morris water maze. FIG. 9G is a schematic diagram of palbociclib administration with 60 mg/(kg*d); 10-month-old wild-type mice (WT) and 5×FAD mice were administrated with solvent (ctrl) and 60 mg/kg/day palbociclib (palb) for 2 months via oral garage; Morris water maze with n(WT-ctrl)=5, n(5×FAD-ctrl)=5, n(5×FAD-palb)=3 were performed.

[9] = Images of liver, gallbladder and kidney in palbociclib treated mouse; assay type: in vivo
Excerpt: as §2
FIGS. 9A-9D show effects of palbociclib on 5×FAD mice model. […] FIG. 9D is an image of an autoradiogram of a Western blot and the associated quantitative bar graph showing the relative expression of E2F-1, CDK6, c-Myb, APP, Iba1 and LC3B in palbociclib treatment group compared to controls. […]

[10] = system: 293T-Tau cell line; experiment: Western blot of CDK4 and Cyclin D1 in 293T-Tau cell line; assay type: cell-based; conditions: 10 nM and 50 nM
Excerpt: as §1

[11] = 5×FAD female mice, 60 mg/kg/day oral 2 months

Compound: COc1ccccc1-n1c(/C=C/c2ccc(O)c(O)c2)nc2ccccc2c1=O [ICCB280]
- induction of C/EBPa [1]: potent inducer

Compound: CN1CC[C@H](c2c(O)cc(O)c3c(=O)cc(-c4ccccc4Cl)oc23)[C@H](O)C1 [flavopiridol]
- amyloid β-induced activation of the Pax6 promoter [2]: blocked
- amyloid β-induced upregulation of Pax6 and c-Myb mRNA and protein [3]: significantly blocked
- amyloid β-induced death of cortical neurons [4]: protected cortical neurons against amyloid β-induced death
- inhibition of all cdks tested (cdks 1, 2, 4 and 7) [5]: potent and specific in vitro inhibition

Compound: CC(=O)c1c(C)c2cnc(Nc3ccc(N4CCNCC4)cn3)nc2n(C2CCCC2)c1=O [palbociclib]
- expression levels of CDK4 and Cyclin D1 [6]: Decreased
- Aβ deposit in brain tissue [7]: relative fewer
- expression of Pax6 [7]: decreased expression
- expression of cell cycle marker (Cyclin D1) [7]: increased expression
- expression of E2F-1 ([7]; treatment group compared to controls): relative decreased expression
- frequency of crossing platform in probe trial [8, 11]: significantly increased
- latency to platform in probe trial [8, 11]: significantly improved to the level of the wild type control
- memory and learning of 5×FAD mice ([8]; mouse, in vivo): able to improve memory and learning
- side effect (liver, gallbladder and kidney images) [9]: no side effect
- expression levels of CDK4 and Cyclin D1 [10]: decreased
